The pEC50 is −log10 of the EC50, conventionally taken in molar units. The term pIC50 denotes the negative decadic logarithm of the IC50, by convention in mol/L. A higher pIC50 goes with a small IC50.

Consider nine molecules from patent US20200131123A1, “INDOLE-FORMAMIDE DERIVATIVE, PREPARATION METHOD THEREFOR AND USE THEREOF IN MEDICINE” (Jiangsu Hengrui Medicine Co., Ltd., priority 2017, published 2020).

SMILES strings stand for the structures. pEC50, pIC50: −log10 of the molar value. Read-outs that look alike come from different tables or passages of the source.

One experiment concerns the target T1, RORγ LBD (Homo sapiens, UniProt P51449).
T1 construct: RORγ LBD was diluted with the complete buffer D to a concentration of 1 ng/μL; GST; purchased AB Vector
T1 sequence (P51449 269-508 limits assumed): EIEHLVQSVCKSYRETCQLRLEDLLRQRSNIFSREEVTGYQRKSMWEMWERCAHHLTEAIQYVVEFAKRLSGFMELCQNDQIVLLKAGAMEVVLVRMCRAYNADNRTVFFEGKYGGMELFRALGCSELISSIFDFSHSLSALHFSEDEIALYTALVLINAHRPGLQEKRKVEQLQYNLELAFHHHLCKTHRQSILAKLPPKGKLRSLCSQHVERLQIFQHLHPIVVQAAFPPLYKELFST
Description: LanthaScreen TR-FRET RORγ co-activation system, effect on in vitro activity of RORγ. It counts as biochemical. As to conditions: for EC50: TR-FRET RORγ co-activation, for agonist the value refers to EC50, read-out: EC50/IC50 a (nM): EC50 (agonist); for Type: agonist or inverse agonist of RORγ. As for the experimental part: 1. LanthaScreen® TR-FRET RORγ co-activation system (Life Technologies)
A complete buffer D (complete TR-FRET Coregulator) (Life Technologies) was formulated first, containing a final concentration of 5 mM DTT. The final concentration of DMSO was 2%. The test compound was serially diluted to 2× final concentration in the complete buffer D containing 2% of DMSO, and the maximum dose was […]. The test compound was added to the test wells of a 384-well plate (PerkinElmer) in 10 μl/well. Two parallel control wells were set up for each test compound at the same concentration. 4×RORγ LBD (AB Vector) was formulated. RORγ LBD was diluted with the complete buffer D to a concentration of 1 ng/μL, and added to the test wells of 384-well plate in 5 μl/well. The negative control well was 5 μL of complete buffer D without RORγ LBD. A mixed solution comprising 0.6 μM of fluorescein-D22 (4×) and 8 nM of terbium(Tb)-labeled anti-GST antibody (4×) (Life Technologies) was formulated with the complete buffer D, and 5 μL of the mixed solution was added to the 384-well plate. The total reaction system was 20 μL. The 384-well plate was gently shaken on a shaker, and incubated at room temperature in the dark for 2-4 hours.
Fluorescence readings were determined with Tecan Infinite M1000. The logarithmic curve of the ratio of the emission wavelength of 520 nm/495 nm to the concentration of the compound was plotted by GraphPad Prism 6.0 software. EC50/IC50 value of the test compound was calculated.
In general terms: In TR-FRET formats the signal depends on donor and acceptor labels being close together.

For a further experiment, the system named is IL-17A. The experiment can be described thus: IL-17A enzyme-linked immune quantitative assay in cytostim-activated human PBMC. Type of experiment: cell-based. As to conditions: 72 h; IL-17A in supernatant of human PBMC, 3 days after drug treatment. As for the experimental part: 1. Human peripheral blood mononuclear cells (PBMC) (Zenbio)
5. Human IL-17 enzyme-linked immunosorbent kit (R&D System)
Frozen human peripheral blood mononuclear cells (PBMC) were rapidly resuscitated in pre-warmed lymphocyte culture medium, and centrifuged at 1000 rpm for 10 min. The cell culture supernatant was removed. The cells were gently suspended in TexMACS medium and counted. The T cell activation reagent cytostim (10 μl/ml) was added in proportion to the cell suspension. Then, the cells were seeded in a 96-well cell culture plate at a density of 1×10^5 peripheral blood mononuclear cells/well. The test compounds were diluted in gradient with TexMACS medium, and added respectively to the test wells, with 2-3 parallel wells per group. A negative control well containing only cells without cytostim was provided to obtain the background reading. The cell culture plate was placed in a incubator at 5% carbon dioxide, 37° C. to incubate for 3 days. The cell culture supernatant was collected 3 days after drug treatment, and centrifuged to remove the suspension. Then, IL-17A in the supernatant was quantified with IL-17A enzyme-linked immunosorbent kit. EC50 values of the test compounds were calculated with GraphPad Prism 6.0.

Where [1] appears, read: for agonist the value refers to Emax(%), read-out: Emax(%)/maximum inhibition rate b: Emax(%) (agonist).

Regarding `O=C(N[C@@H](CO)c1ccc(S(=O)(=O)NC2CC2)cc1)c1ccc2c(c1)cc(Cc1ccc(Cl)cc1C(F)(F)F)n2CCF` [Example 12, (R)-2-(4-Chloro-2-(trifluoromethyl)benzyl)-N-(1-(4-(N-cyclopropylsulfamoyl)phenyl)-2-hydroxyethyl)-1-(2-fluoroethyl)-1H-indole-5-carboxamide], at RORγ LBD, the EC50 came to 13 nM and the Type entry was “Agonist”. Besides, the Emax at RORγ LBD (setting [1]) came out at 89%. Also, in the experiment on IL-17A, the negative-log EC50 (pEC50) was 7.60 and the Emax came to 71%.

As to `CCS(=O)(=O)c1ccc(C(CO)NC(=O)c2ccc3c(c2)cc(Cc2ccccc2C(F)(F)F)n3C(C)C)cc1` (stereo not drawn) [Example 1, N-(1-(4-(Ethylsulfonyl)phenyl)-2-hydroxyethyl)-1-isopropyl-2-(2-(trifluoromethyl)benzyl)-1H-indole-5-carboxamide], at RORγ LBD, the EC50 came to 64 nM and the Type entry is “Agonist”. Moreover, on RORγ LBD (setting [1]), the Emax was determined as 94%.

Consider `CCS(=O)(=O)c1ccc([C@H](CO)NC(=O)c2cc3cc(Cc4ccc(Cl)cc4C(F)(F)F)n(CCF)c3cc2F)cc1` [Example 5, (R)-2-(4-Chloro-2-(trifluoromethyl)benzyl)-N-(1-(4-(ethylsulfonyl)phenyl)-2-hydroxyethyl)-6-fluoro-1-(2-fluoroethyl)-1H-indole-5-carboxamide], for which, at RORγ LBD, the EC50 worked out at 334 nM and the Type result is recorded as “Agonist”. For the same molecule, the Emax on RORγ LBD (setting [1]) stood at 110%.

For the molecule `CCS(=O)(=O)c1ccc([C@H](CO)NC(=O)c2cc3cc(Cc4ccc(Cl)cc4C(F)(F)F)n(C4CC4)c3cc2F)cc1` [Example 6, (R)-2-(4-Chloro-2-(trifluoromethyl)benzyl)-1-cyclopropyl-N-(1-(4-(ethylsulfonyl)phenyl)-2-hydroxyethyl)-6-fluoro-1H-indole-5-carboxamide], on RORγ LBD, the EC50 turned out to be 79 nM and the Type result is reported as “Agonist”. The Emax on RORγ LBD (setting [1]) came out at 105%.

As for `CCS(=O)(=O)c1ccc([C@H](CO)NC(=O)c2ccc3c(c2)cc(CN2CCOCC2C(F)(F)F)n3CCF)cc1` (stereo partly drawn) [Example 7, N—((R)-1-(4-(Ethylsulfonyl)phenyl)-2-hydroxyethyl)-1-(2-fluoroethyl)-2-((3-(trifluoromethyl)morpholino)methyl)-1H-indole-5-carboxamide], at RORγ LBD, the EC50 was found to be 80 nM and the Type entry was “Agonist”. For the same molecule, the Emax at RORγ LBD (setting [1]) was 84%.

Turning to `CCS(=O)(=O)c1ccc([C@H](CO)NC(=O)c2ccc3c(c2)cc(Cc2ccc(C(F)(F)F)cc2)n3CCF)cc1` [Example 17, (R)-2-(4-(trifluoromethyl)benzyl)-N-(1-(4-(ethylsulfonyl)phenyl)-2-hydroxyethyl)-1-(2-fluoroethyl)-1H-indole-5-carboxamide], on RORγ LBD, the pIC50 was 7.54 and the Type result is on record as “Inverse agonist”. The Emax at RORγ LBD (read-out: Emax(%)/maximum inhibition rate b: maximum inhibition rate (inverse agonist)) worked out at 67%.

As to `CCS(=O)(=O)c1ccc(C(CO)NC(=O)c2ccc3c(c2)cc(Cc2ccc(Cl)cc2C(F)(F)F)n3CCF)cc1` (stereo not drawn) [Example 2, 2-(4-Chloro-2-(trifluoromethyl)benzyl)-N-(1-(4-(ethylsulfonyl)phenyl)-2-hydroxyethyl)-1-(2-fluoroethyl)-1H-indole-5-carboxamide], in the experiment with IL-17A, the negative logarithm of the EC50 (pEC50) was 7.05 and the Emax was 82%.

With `CCS(=O)(=O)c1ccc([C@@H](CO)NC(=O)c2ccc3c(c2)cc(Cc2ccc(Cl)cc2C(F)(F)F)n3CCF)cc1` [Example 3, (S)-2-(4-Chloro-2-(trifluoromethyl)benzyl)-N-(1-(4-(ethylsulfonyl)phenyl)-2-hydroxyethyl)-1-(2-fluoroethyl)-1H-indole-5-carboxamide], in the experiment on IL-17A, the negative logarithm of the EC50 (pEC50) was 6.77 and the Emax was 136%.

In the case of `O=C(N[C@@H](CO)c1ccc(S(=O)(=O)C2CC2)cc1)c1ccc2c(c1)cc(Cc1ccc(Cl)cc1C(F)(F)F)n2CCF` [Example 15, (R)-2-(4-Chloro-2-(trifluoromethyl)benzyl)-N-(1-(4-(cyclopropylsulfonyl)phenyl)-2-hydroxyethyl)-1-(2-fluoroethyl)-1H-indole-5-carboxamide], at RORγ LBD, the EC50 amounted to 124 nM and the Type entry is on record as “Agonist”. For the same molecule, on RORγ LBD (setting [1]), the Emax amounted to 109%.
